The text below walks through data of patent US20040214184A1, “Small peptides capable of modulating the function of cd66 (ceacam) family members” (priority 2001, published 2004).

Entries after “also recorded” stand apart in the source; their conditions may differ.

The subject of this assay is T-cells. Description: T-cell activation assay (anti-CD3 stimulated proliferation, 3H-Tdr incorporation). It counts as cell-based. As to conditions: for activity in the T-cell activation assay (T-cell activation by anti-CD3, proliferation quantitated by 3H-Tdr incorporation): 30 min preincubation, anti-CD3 0.3 μg/ml, 56 h then 16 h with 3H-Tdr. The protocol:
FIG. 1. Effects of CD66a peptides on T-cell activation by anti-CD3. T-cells were added to media containing the indicated CD66a peptide S28 ((CD66a-24), (SEQ ID NO:1)) at 150 μg/ml (final concentration) or positive or negative controls in 96 well microtiter plates, and the plates were incubated at 37° C. for 30 min in 5% CO2. Media containing anti-CD3 anitbody was then added and the cells were incubated at […] for 56 hours. Twenty μL of media containing 1 μCi of ^3H-Tdr was then added to each well and the plates were incubated at 37° C. for 30 min in 5% CO2 for an additional 16 hours. The cells were then harvested onto glass fiber filter papers and the radioactivity incorporated into the cells was then determined by liquid scintillation counting. Values are shown as the amount of ^3H-Tdr incorporation in the presence of the indicated peptide as a percent of that incorpoated in the absence of peptide, and represent the means+/−SD of 4 separate determinations.
Cell Preparation. Peripheral blood mononuclear cells (PBMC) were isolated by centrifugation of heparinized blood on a Ficoll/Hypaque (Pharmacia, Uppsala, Sweden) density gradient. Cells from the interface of the gradient were harvested, and resuspended at a concentration of 10^6/ml in medium [RPMI-1640 supplemented with 10% heat inactivated fetal bovine serum, 2 mM L-glutamine, 10 mM HEPES buffer, pH 7.4, 100 U/ml penicillin and 100 ug/ml streptomycin (Gibco, Paisley, U.K.)]. To isolate T-cells, adherent cells were eliminated from PBMC by culture for one hour at 37° C. in 5% CO2 on tissue culture-treated plastic. Remaining B-cells, monocytes, and NK cells were deleted by immunomagnetic negative selection using anti-CD14, anti-CD19, and anti-CD56 microbeads per the manufacturer's recommendations (Miltenyi Biotec GMBH, Bergisch Gladbach, Germany). The purity of the isolated T-cells was >90% as assessed by flow cytometry using FITC-labeled anti-CD3 (Pharmingen, Hamburg, Germany).
T-cell activation assay. Purified T-cells (1×10^5/well) were plated into flat-bottomed 96 well microtiter plates (Greiner, Frickenhausen, Germany) and peptides were added at the indicated concentration. T-cells were incubated with the peptides for 30 min and then stimulated by adding 0.3 μg/ml of anti-CD3 mAb (Pharmingen). The cells were then incubated at 37° C. in 5% CO2 for 56 hours. One μCi of tritiated thymidine (3H-Tdr) (Amersham Buchler, Braunschweig, Germany) in 20 μl of RPMI-1640 was then added to each well, and the cells were cultured for another 16 hours. Cells were then harvested with a cell harvester (Pharmacia LKB-Wallac) onto glass fiber filter paper in a minifold filtration unit (Wallac, Turku, Finland). Individual filters were dissolved in scintillation fluid, and ^3H-Tdr incorporation was measured with a liquid scintillation counter (Pharmacia).

For the substance “IRWFFKN [Peptide S182, smaller part (right) of peptide S28]”, the “activity in the T-cell activation assay (T-cell activation by anti-CD3, proliferation quantitated by 3H-Tdr incorporation)” value (“activity in the T-cell activation assay” for short) (peptide 150 μg/ml) is “had activity”.

With “TGISIRW [Peptide S181, smaller part (middle) of peptide S28]”, the “activity in the T-cell activation assay” value (peptide 150 μg/ml) is reported as “had activity”.

In the case of “TNDTGIS [Peptide S180, smaller part (left) of peptide S28]”, the “activity in the T-cell activation assay” value (peptide 150 μg/ml) is “had activity”.

Turning to “TNDTGISIRWFFKN [Peptide S28, 14-amino-acid peptide derived from CD66a]”, for the setting “peptide 150 μg/ml”, the “activity in the T-cell activation assay” value is “inhibited T-cell activation by anti-CD3 compared with control; also recorded: found to have activity; also recorded: potent inhibitor of T-cell activation”. Also, where the note is “peptide 150 μg/ml, anti-CD3 stimulation, 4 determinations, p<0.05”, the “T-cell proliferation (3H-Tdr incorporation) in the presence of peptide compared with media alone (positive control)” value was “statistically less than that observed with media alone”. Besides, under “peptides 150 μg/ml, anti-CD3 stimulation, 4 determinations, p<0.05”, the “cell proliferation (3H-Tdr incorporation) in the presence of peptide compared with the 2 scrambled peptides S159 and S160” value is listed as “statistically less than that observed with the 2 scrambled peptides”.
